Reference: article PMC8185074, “Anchor extension: a structure-guided approach to design cyclic peptides targeting enzyme active sites” (Nature Communications, 2021)
Like-named read-outs stand apart in the source and are kept apart here. Peptide text beside a SMILES is read from it.

Legend:
Format in all cases: biochemical
HDAC2 [1] = biological target: T1, HDAC2 (Homo sapiens, UniProt Q92769); assay: HDAC2 inhibition, full IC50 measurement (Reaction Biology; fluorogenic p53 peptide RHKK(Ac)AMC); settings: for HDAC2 activity raw data (signal): single trial
T1 construct: purchased Reaction Biology Corporation (assay run by the CRO)
T1 sequence (Q92769 whole entry): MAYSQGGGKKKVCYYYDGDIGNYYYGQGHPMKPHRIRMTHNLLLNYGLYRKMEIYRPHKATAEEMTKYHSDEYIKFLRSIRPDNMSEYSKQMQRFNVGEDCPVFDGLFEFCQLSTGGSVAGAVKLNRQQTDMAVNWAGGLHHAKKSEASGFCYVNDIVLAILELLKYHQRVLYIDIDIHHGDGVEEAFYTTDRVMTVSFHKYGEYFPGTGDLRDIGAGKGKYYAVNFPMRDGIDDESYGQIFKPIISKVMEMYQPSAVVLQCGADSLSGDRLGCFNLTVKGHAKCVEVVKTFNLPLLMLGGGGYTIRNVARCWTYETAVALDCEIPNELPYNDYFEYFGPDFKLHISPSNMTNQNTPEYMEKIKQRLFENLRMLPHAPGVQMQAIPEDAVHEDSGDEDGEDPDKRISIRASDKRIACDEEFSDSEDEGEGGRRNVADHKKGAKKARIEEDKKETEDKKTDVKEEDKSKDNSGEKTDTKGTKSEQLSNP
Outline: (§1)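 Reaction: enzyme plus acoustically dispensed peptide inhibitor, 50 μM RHKK(Ac)AMC substrate, pH 8.0 Tris buffer with BSA and 1% DMSO, 1 h, 30 °C. Duplicates averaged.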

HDAC2 [2] = biological target: T1, HDAC2; assay: Initial HDAC2 IC50 estimate (BPS Biosciences HDAC fluorogenic assay kit)
Procedure: Initial IC50 values were estimated using HDAC fluorogenic assay kits from BPS Biosciences (HDAC2, HDAC4, and HDAC6) following the protocol described in the kit. All the measures were performed in duplicates or triplicates. These measurements were done either on full range of concentrations (1:10 dilution from 1 µM to 100 pM) or on two concentrations only (20 nM and 200 nM) as an estimate of the range. […] Source Data are provided as a Source Data file.

HDAC3 = biological target: T2, HDAC3 (Homo sapiens, UniProt O15379); assay: HDAC3 inhibition, full IC50 measurement (Reaction Biology; fluorogenic p53 peptide RHKK(Ac)AMC); settings: single trial
T2 construct: purchased Reaction Biology Corporation (assay run by the CRO)
T2 sequence (O15379 whole entry): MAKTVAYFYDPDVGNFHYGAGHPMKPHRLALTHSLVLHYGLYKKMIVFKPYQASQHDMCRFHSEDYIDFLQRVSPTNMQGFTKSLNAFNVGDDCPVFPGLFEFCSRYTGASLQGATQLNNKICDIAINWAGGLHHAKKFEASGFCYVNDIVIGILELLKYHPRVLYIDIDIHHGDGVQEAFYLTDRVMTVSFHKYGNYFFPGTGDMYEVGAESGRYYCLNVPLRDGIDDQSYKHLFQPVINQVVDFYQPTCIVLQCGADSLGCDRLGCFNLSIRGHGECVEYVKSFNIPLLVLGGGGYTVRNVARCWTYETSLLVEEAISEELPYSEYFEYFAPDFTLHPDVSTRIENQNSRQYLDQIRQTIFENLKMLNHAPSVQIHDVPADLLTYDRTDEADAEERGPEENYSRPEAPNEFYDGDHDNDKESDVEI
T2 sequence (Q9Y618 395-489 partner limits assumed): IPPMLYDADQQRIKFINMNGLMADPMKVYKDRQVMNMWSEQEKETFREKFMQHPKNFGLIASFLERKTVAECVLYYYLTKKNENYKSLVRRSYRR
Procedure: The assay was performed using 50 μM fluorogenic peptide from p53 residues 379-382 [RHKK(Ac)AMC] in a base reaction buffer of 50 mM Tris-HCl at pH 8.0, 137 mM NaCl, 2.7 mM KCl, 1 mM MgCl2, and freshly added 1 mg/ml BSA and 1% DMSO. Peptides were first dissolved in DMSO and then added to the reaction mixture with the enzyme using acoustic technique, enough to reach the desired concentration for that assay point. Peptide concentrations were calculated based on mass of lyophilized peptide and its molecular weight. The substrate was then added and incubated for 1 hour at 30 °C in a sealed container. After the incubation, developer was added to stop the reaction and develop color. Kinetic measurements were then performed for 20 min with Envision with 5 min intervals (Ex/Em = 360/460 nm). The endpoint after plateau was taken for IC50 measurement.
In cases where duplicate measures are used, average data is reported in the main text or Supplementary Tables.

HDAC6 = biological target: T3, HDAC6 (Homo sapiens, UniProt Q9UBN7); assay: HDAC6 inhibition, full IC50 measurement (Reaction Biology; fluorogenic p53 peptide RHKK(Ac)AMC); settings: single trial
T3 construct: purchased Reaction Biology Corporation (assay run by the CRO)
T3 sequence (Q9UBN7 1-1215): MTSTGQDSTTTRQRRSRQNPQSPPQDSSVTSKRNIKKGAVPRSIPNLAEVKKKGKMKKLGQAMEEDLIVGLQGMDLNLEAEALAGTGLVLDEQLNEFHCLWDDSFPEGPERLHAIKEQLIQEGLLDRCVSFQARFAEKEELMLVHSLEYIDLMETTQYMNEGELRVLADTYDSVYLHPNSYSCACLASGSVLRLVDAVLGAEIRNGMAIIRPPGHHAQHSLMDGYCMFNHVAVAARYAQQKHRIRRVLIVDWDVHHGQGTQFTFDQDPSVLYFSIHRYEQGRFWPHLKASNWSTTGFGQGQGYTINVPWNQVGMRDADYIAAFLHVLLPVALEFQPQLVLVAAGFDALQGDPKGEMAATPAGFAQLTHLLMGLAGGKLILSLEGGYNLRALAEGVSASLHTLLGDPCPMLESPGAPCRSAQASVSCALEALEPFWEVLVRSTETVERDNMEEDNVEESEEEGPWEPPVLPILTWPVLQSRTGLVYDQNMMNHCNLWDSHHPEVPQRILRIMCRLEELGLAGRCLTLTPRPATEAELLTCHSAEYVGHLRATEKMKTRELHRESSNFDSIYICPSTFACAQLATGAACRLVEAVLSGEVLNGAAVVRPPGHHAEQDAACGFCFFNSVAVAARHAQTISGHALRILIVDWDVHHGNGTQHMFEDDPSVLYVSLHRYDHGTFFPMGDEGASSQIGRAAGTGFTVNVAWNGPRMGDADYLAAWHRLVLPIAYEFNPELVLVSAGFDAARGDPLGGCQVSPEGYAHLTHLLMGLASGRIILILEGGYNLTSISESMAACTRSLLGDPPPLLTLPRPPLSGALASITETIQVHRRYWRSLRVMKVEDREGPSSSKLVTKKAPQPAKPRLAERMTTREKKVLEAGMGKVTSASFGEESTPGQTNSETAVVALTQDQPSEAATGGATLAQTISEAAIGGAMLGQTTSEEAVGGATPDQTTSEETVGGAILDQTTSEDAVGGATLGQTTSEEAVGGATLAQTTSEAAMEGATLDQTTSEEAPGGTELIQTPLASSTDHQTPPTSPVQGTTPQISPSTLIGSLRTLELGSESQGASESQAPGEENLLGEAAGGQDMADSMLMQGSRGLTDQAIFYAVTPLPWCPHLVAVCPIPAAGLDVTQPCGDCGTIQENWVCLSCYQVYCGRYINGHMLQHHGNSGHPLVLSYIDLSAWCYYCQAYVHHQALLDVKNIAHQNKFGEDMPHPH
Outline: as §1

[3] = Supplementary Dataset 2, read-out: HDAC2 activity (initial activity)
[4] = Supp. Table 4, rough estimates, for promising hits full measurements, read-out: HDAC2 activity (initial values for HDAC2 IC50)

## N=C(N)NCCC[C@H]1NC(=O)[C@H]2CCCN2C(=O)[C@@H](Cc2c[nH]cn2)NC(=O)[C@H](Cc2ccc(O)cc2)NC(=O)[C@H](CCCCCS)NC(=O)[C@H](CCc2ccccc2)NC(=O)[C@H]2CCCN2C(=O)[C@H](CC(=O)O)NC(=O)[C@@H]2CCCN2C1=O [des3.2.3, SHA-Tyr-dHis-dPro-dArg-Pro-Asp-dPro-C27] (HELM PEPTIDE1{D.[dP].[O=C([C@H](CCc1ccccc1)N[*:1])[*:2]].[O=C([C@H](CCCCCS)N[*:1])[*:2]].Y.[dH].[dP].[dR].P}$PEPTIDE1,PEPTIDE1,1:R1-9:R2$$$V2.0)
HDAC2 [1]
  2-Selectivity: fold potency for HDAC2 over HDAC6: 0.47 fold
HDAC2 [2]; HDAC2 activity (initial activity), Supplementary Dataset 2
  IC50: 92 nM

## NCCCC[C@@H]1NC(=O)[C@@H](CC(N)=O)NC(=O)[C@H]2CCCN2C(=O)[C@@H](Cc2c[nH]cn2)NC(=O)[C@H](Cc2ccc(O)cc2)NC(=O)[C@H](CCCCCS)NC(=O)[C@H](CCc2ccccc2)NC1=O [des3.2.4, SHA-Tyr-dHis-dPro-dAsn-Lys-C27] (HELM PEPTIDE1{K.[O=C([C@H](CCc1ccccc1)N[*:1])[*:2]].[O=C([C@H](CCCCCS)N[*:1])[*:2]].Y.[dH].[dP].[dN]}$PEPTIDE1,PEPTIDE1,1:R1-7:R2$$$V2.0)
HDAC3; Conc. 1.00E-04 M
  HDAC3 activity raw data (signal): -9402
HDAC3; Conc. 1.11E-05 M
  HDAC3 activity raw data (signal): 593
HDAC3; Conc. 1.23E-06 M
  HDAC3 activity raw data (signal): 35444
HDAC3; Conc. 1.37E-07 M
  HDAC3 activity raw data (signal): 204357
HDAC3; Conc. 1.52E-08 M
  HDAC3 activity raw data (signal): 337866
HDAC3; Conc. 3.33E-05 M
  HDAC3 activity raw data (signal): -3894
HDAC3; Conc. 3.70E-06 M
  HDAC3 activity raw data (signal): 11659
HDAC3; Conc. 4.12E-07 M
  HDAC3 activity raw data (signal): 78893
HDAC3; Conc. 4.57E-08 M
  HDAC3 activity raw data (signal): 259781
HDAC3; Conc. 5.08E-09 M
  HDAC3 activity raw data (signal): 427232
HDAC2 [1]
  2-Selectivity: fold potency for HDAC2 over HDAC6: 0.43 fold
HDAC2 [1]; Conc. 1.00E-04 M
  HDAC2 activity raw data (signal): -2073
HDAC2 [1]; Conc. 1.11E-05 M
  HDAC2 activity raw data (signal): 877
HDAC2 [1]; Conc. 1.23E-06 M
  HDAC2 activity raw data (signal): 16887
HDAC2 [1]; Conc. 1.37E-07 M
  HDAC2 activity raw data (signal): 156676
HDAC2 [1]; Conc. 1.52E-08 M
  HDAC2 activity raw data (signal): 359436
HDAC2 [1]; Conc. 3.33E-05 M
  HDAC2 activity raw data (signal): -5431
HDAC2 [1]; Conc. 3.70E-06 M
  HDAC2 activity raw data (signal): -8111
HDAC2 [1]; Conc. 4.12E-07 M
  HDAC2 activity raw data (signal): 83192
HDAC2 [1]; Conc. 4.57E-08 M
  HDAC2 activity raw data (signal): 254992
HDAC2 [1]; Conc. 5.08E-09 M
  HDAC2 activity raw data (signal): 399941
HDAC6; Conc. 1.00E-04 M
  HDAC6 activity raw data (signal): -2801
HDAC6; Conc. 1.11E-05 M
  HDAC6 activity raw data (signal): -1849
HDAC6; Conc. 1.23E-06 M
  HDAC6 activity raw data (signal): 4374
HDAC6; Conc. 1.37E-07 M
  HDAC6 activity raw data (signal): 43765
HDAC6; Conc. 1.52E-08 M
  HDAC6 activity raw data (signal): 190706
HDAC6; Conc. 3.33E-05 M
  HDAC6 activity raw data (signal): -563
HDAC6; Conc. 3.70E-06 M
  HDAC6 activity raw data (signal): -1989
HDAC6; Conc. 4.12E-07 M
  HDAC6 activity raw data (signal): 12736
HDAC6; Conc. 4.57E-08 M
  HDAC6 activity raw data (signal): 97833
HDAC6; Conc. 5.08E-09 M
  HDAC6 activity raw data (signal): 278125
HDAC2 [2]; [3]
  IC50: 54 nM

## N=C(N)NCCC[C@@H]1NC(=O)[C@@H](CCCNC(=N)N)NC(=O)[C@H]2CCCN2C(=O)[C@@H](CO)NC(=O)[C@H](Cc2ccc(O)cc2)NC(=O)[C@H](CCCCCS)NC(=O)[C@H](CCc2ccccc2)NC(=O)[C@@H](CCC(N)=O)NC(=O)[C@H](CC(=O)O)NC1=O [des3.3.2, SHA-Tyr-dSer-dPro-dArg-Arg-Asp-dGln-C27] (HELM PEPTIDE1{D.[dQ].[O=C([C@H](CCc1ccccc1)N[*:1])[*:2]].[O=C([C@H](CCCCCS)N[*:1])[*:2]].Y.[dS].[dP].[dR].R}$PEPTIDE1,PEPTIDE1,1:R1-9:R2$$$V2.0)
HDAC2 [1]
  2-Selectivity: fold potency for HDAC2 over HDAC6: 3 fold
HDAC2 [2]; [4]
  IC50: 57 nM
HDAC2 [2]; [3]
  IC50: 50 nM

## N=C(N)NCCC[C@@H]1NC(=O)[C@@H](CCCNC(=N)N)NC(=O)[C@H]2CCCN2C(=O)[C@@H](Cc2c[nH]cn2)NC(=O)[C@H](Cc2ccc(O)cc2)NC(=O)[C@H](CCCCCS)NC(=O)[C@H](CCc2ccccc2)NC(=O)[C@H]2CCCN2C(=O)[C@H](CC(=O)O)NC1=O [des3.2.1, SHA-Tyr-dHis-dPro-dArg-Arg-Asp-dPro-C27] (HELM PEPTIDE1{D.[dP].[O=C([C@H](CCc1ccccc1)N[*:1])[*:2]].[O=C([C@H](CCCCCS)N[*:1])[*:2]].Y.[dH].[dP].[dR].R}$PEPTIDE1,PEPTIDE1,1:R1-9:R2$$$V2.0)
HDAC2 [1]
  2-Selectivity: fold potency for HDAC2 over HDAC6: 0.44 fold
HDAC2 [2]; HDAC2 activity (initial values for HDAC2 IC50), Supp. Table 4, rough estimates, for promising hits full measurements
  IC50: 66 nM

## N=C(N)NCCC[C@@H]1NC(=O)[C@@H](CCCNC(=N)N)NC(=O)[C@H]2CCCN2C(=O)[C@@H](Cc2c[nH]cn2)NC(=O)[C@H](Cc2ccc(O)cc2)NC(=O)[C@H](CCCCCS)NC(=O)[C@H](CCc2ccccc2)NC(=O)[C@@H](CCCCN)NC(=O)[C@H](CC(=O)O)NC1=O [des3.2.0, SHA-Tyr-dHis-dPro-dArg-Arg-Asp-dLys-C27] (HELM PEPTIDE1{D.[dK].[O=C([C@H](CCc1ccccc1)N[*:1])[*:2]].[O=C([C@H](CCCCCS)N[*:1])[*:2]].Y.[dH].[dP].[dR].R}$PEPTIDE1,PEPTIDE1,1:R1-9:R2$$$V2.0)
HDAC2 [1]
  2-Selectivity: fold potency for HDAC2 over HDAC6: 0.53 fold
HDAC2 [2]; [4]
  IC50: 28 nM
HDAC2 [2]; [3]
  IC50: > 10 nM

## N=C(N)NCCC[C@H]1NC(=O)[C@H]2CCCN2C(=O)[C@@H](Cc2c[nH]cn2)NC(=O)[C@H](Cc2ccc(O)cc2)NC(=O)[C@H](CCCCCS)NC(=O)[C@H](CCc2ccccc2)NC(=O)[C@@H](CCCCN)NC(=O)[C@H](CC(=O)O)NC(=O)[C@@H]2CCCN2C1=O [des3.2.2, SHA-Tyr-dHis-dPro-dArg-Pro-Asp-dLys-C27] (HELM PEPTIDE1{D.[dK].[O=C([C@H](CCc1ccccc1)N[*:1])[*:2]].[O=C([C@H](CCCCCS)N[*:1])[*:2]].Y.[dH].[dP].[dR].P}$PEPTIDE1,PEPTIDE1,1:R1-9:R2$$$V2.0)
HDAC2 [1]
  2-Selectivity: fold potency for HDAC2 over HDAC6: 0.41 fold
HDAC2 [2]; [3]
  IC50: 58 nM
